Laboratory results from patent US20100129434A1, “COMPOSITIONS AND METHODS FOR THE TREATMENT OF MUCORMYCOSIS AND OTHER FUNGAL DISEASES” (priority 2006, published 2010).
Values after ≈ are worked out from the molar mass of the structure shown. Like-named read-outs stand apart in the source and are kept apart here.

Tested on: R. oryzae
Experiment: Deferasirox susceptibility testing (MIC/MFC), R. oryzae isolates
Assay type: cell-based, Rhizopus oryzae
Conditions: Rhizopus arrhizus; for MIC90: R. oryzae MIC90/MFC90
Description: Minimum inhibitory concentration (MIC) and minimum fungicidal concentration (MFC) were determined for deferasirox by the method of Espinel-Ingroff using R. oryzae spores starved for iron (Espinel-Ingroff, (2001), supra). Cidality was defined as a <4-fold difference between MIC and MFC.
We next determined the deferasirox susceptibilities of multiple clinical isolates of Mucorales (Table 3). The MIC9OS of deferasirox against Mucor, non-oryzae Rhizopus spp., and R. oryzae were 3.12 to 6.25 μg/ml. MFCs were similar to MICs, and deferasirox was cidal for 28/29 (97%) of isolates. Of note, slight growth was seen within the first twelve hours even at extremely high concentrations of deferasirox. […] Furthermore, the MICs and MFCs of deferasirox against these isolates were well below clinically achievable peak (˜38 μg/ml) and trough serum levels (˜17 μg/ml) of the drug at steady state when administered at the FDA-approved starting dose (20 mg/kg/d).

[1] = NRRL6059, 24 h, R. oryzae type I NRRL 6059, 24 h
[2] = NRRL6059, 48 h, R. oryzae type I NRRL 6059, 48 h
[3] = NRRL21409, 48 h, R. oryzae type I NRRL21409, 48 h

## O=C(O)c1ccc(-n2nc(-c3ccccc3O)nc2-c2ccccc2O)cc1 [Deferasirox, 4-[3,5-Bis(2-hydroxyphenyl)-1H-1,2,4-triazol-1-yl]-benzoic acid]
48 h, R. oryzae 729-02, 48 h, read-out: MFC
  MFC: 6.25 µg/mL (≈ 16.7 µM)
48 h, R. oryzae 729-02, 48 h, read-out: MIC
  MIC: 6.25 µg/mL (≈ 16.7 µM)
48 h, R. oryzae HUMC 02, 48 h, read-out: MFC
  MFC: 1.56 µg/mL (≈ 4.18 µM)
48 h, R. oryzae HUMC 02, 48 h, read-out: MIC
  MIC: 1.56 µg/mL (≈ 4.18 µM)
48 h, R. oryzae pyr17 pyrG−/−, 48 h, read-out: MFC
  MFC: 0.78 µg/mL (≈ 2.09 µM)
48 h, R. oryzae pyr17 pyrG−/−, 48 h, read-out: MIC
  MIC: 0.78 µg/mL (≈ 2.09 µM)
48 h, R. orzae type II 10206, 48 h, read-out: MFC
  MFC: 3.12 µg/mL (≈ 8.36 µM)
48 h, R. orzae type II 10206, 48 h, read-out: MIC
  MIC: 3.12 µg/mL (≈ 8.36 µM)
[1]
  MFC: 6.25 µg/mL (≈ 16.7 µM)
  MIC: 6.15 µg/mL (≈ 16.5 µM)
[2]
  MFC: 6.25 µg/mL (≈ 16.7 µM)
  MIC: 1.56 µg/mL (≈ 4.18 µM)
NRRL10206, 24 h, R. oryzae type I NRRL 10206, 24 h, read-out: MFC
  MFC: 3.12 µg/mL (≈ 8.36 µM)
NRRL10206, 24 h, R. oryzae type I NRRL 10206, 24 h, read-out: MIC
  MIC: 3.12 µg/mL (≈ 8.36 µM)
NRRL10206, 48 h, R. oryzae type I NRRL 10206, 48 h, read-out: MFC
  MFC: 3.12 µg/mL (≈ 8.36 µM)
NRRL10206, 48 h, R. oryzae type I NRRL 10206, 48 h, read-out: MIC
  MIC: 3.12 µg/mL (≈ 8.36 µM)
NRRL11823, 24 h, R. oryzae type I NRRL11823, 24 h, read-out: MFC
  MFC: 3.12 µg/mL (≈ 8.36 µM)
NRRL11823, 24 h, R. oryzae type I NRRL11823, 24 h, read-out: MIC
  MIC: 3.12 µg/mL (≈ 8.36 µM)
NRRL11823, 48 h, R. oryzae type I NRRL11823, 48 h, read-out: MFC
  MFC: 6.25 µg/mL (≈ 16.7 µM)
NRRL11823, 48 h, R. oryzae type I NRRL11823, 48 h, read-out: MIC
  MIC: 6.25 µg/mL (≈ 16.7 µM)
NRRL13142, 24 h, R. oryzae type I NRRL13142, 24 h, read-out: MFC
  MFC: 6.25 µg/mL (≈ 16.7 µM)
NRRL13142, 24 h, R. oryzae type I NRRL13142, 24 h, read-out: MIC
  MIC: 6.25 µg/mL (≈ 16.7 µM)
NRRL13142, 48 h, R. oryzae type I NRRL13142, 48 h, read-out: MFC
  MFC: 3.12 µg/mL (≈ 8.36 µM)
NRRL13142, 48 h, R. oryzae type I NRRL13142, 48 h, read-out: MIC
  MIC: 3.12 µg/mL (≈ 8.36 µM)
NRRL13440, 24 h, R. oryzae type 1 NRRL13440, 24 h, read-out: MFC
  MFC: 12.5 µg/mL (≈ 33.5 µM)
NRRL13440, 24 h, R. oryzae type 1 NRRL13440, 24 h, read-out: MIC
  MIC: 1.56 µg/mL (≈ 4.18 µM)
NRRL13440, 48 h, R. oryzae type 1 NRRL13440, 48 h, read-out: MFC
  MFC: 12.5 µg/mL (≈ 33.5 µM)
NRRL13440, 48 h, R. oryzae type 1 NRRL13440, 48 h, read-out: MIC
  MIC: 1.56 µg/mL (≈ 4.18 µM)
NRRL13533, 24 h, R. oryzae type I NRRL13533, 24 h, read-out: MFC
  MFC: 6.25 µg/mL (≈ 16.7 µM)
NRRL13533, 24 h, R. oryzae type I NRRL13533, 24 h, read-out: MIC
  MIC: 1.56 µg/mL (≈ 4.18 µM)
NRRL13533, 48 h, R. oryzae type I NRRL13533, 48 h, read-out: MFC
  MFC: 6.25 µg/mL (≈ 16.7 µM)
NRRL13533, 48 h, R. oryzae type I NRRL13533, 48 h, read-out: MIC
  MIC: 1.56 µg/mL (≈ 4.18 µM)
NRRL18148, 24 h, R. oryzae type II NRRL 18148, 24 h, read-out: MFC
  MFC: 0.78 µg/mL (≈ 2.09 µM)
NRRL18148, 24 h, R. oryzae type II NRRL 18148, 24 h, read-out: MIC
  MIC: 0.78 µg/mL (≈ 2.09 µM)
NRRL18148, 48 h, R. oryzae type II NRRL 18148, 48 h, read-out: MFC
  MFC: 0.78 µg/mL (≈ 2.09 µM)
NRRL18148, 48 h, R. oryzae type II NRRL 18148, 48 h, read-out: MIC
  MIC: 0.78 µg/mL (≈ 2.09 µM)
NRRL21251, 24 h, R. oryzae type I NRRL 21251, 24 h, read-out: MFC
  MFC: 6.25 µg/mL (≈ 16.7 µM)
NRRL21251, 24 h, R. oryzae type I NRRL 21251, 24 h, read-out: MIC
  MIC: 3.12 µg/mL (≈ 8.36 µM)
NRRL21251, 48 h, R. oryzae type I NRRL 21251, 48 h, read-out: MFC
  MFC: 6.25 µg/mL (≈ 16.7 µM)
NRRL21251, 48 h, R. oryzae type I NRRL 21251, 48 h, read-out: MIC
  MIC: 6.25 µg/mL (≈ 16.7 µM)
NRRL21396, 24 h, R. oryzae type I NRRL21396, 24 h, read-out: MFC
  MFC: 12.5 µg/mL (≈ 33.5 µM)
NRRL21396, 24 h, R. oryzae type I NRRL21396, 24 h, read-out: MIC
  MIC: 12.5 µg/mL (≈ 33.5 µM)
NRRL21396, 48 h, R. oryzae type I NRRL21396, 48 h, read-out: MFC
  MFC: 6.25 µg/mL (≈ 16.7 µM)
NRRL21396, 48 h, R. oryzae type I NRRL21396, 48 h, read-out: MIC
  MIC: 1.56 µg/mL (≈ 4.18 µM)
[3]
  MFC: 1.56 µg/mL (≈ 4.18 µM)
  MIC: 1.56 µg/mL (≈ 4.18 µM)
NRRL21446, 24 h, R. oryzae type II NRRL 21446, 24 h, read-out: MFC
  MFC: 12.5 µg/mL (≈ 33.5 µM)
NRRL21446, 24 h, R. oryzae type II NRRL 21446, 24 h, read-out: MIC
  MIC: 6.25 µg/mL (≈ 16.7 µM)
NRRL21446, 48 h, R. oryzae type II NRRL 21446, 48 h, read-out: MFC
  MFC: 6.25 µg/mL (≈ 16.7 µM)
NRRL21446, 48 h, R. oryzae type II NRRL 21446, 48 h, read-out: MIC
  MIC: 6.25 µg/mL (≈ 16.7 µM)
NRRL21447, 24 h, R. oryzae type II NRRL 21447, 24 h, read-out: MFC
  MFC: 12.5 µg/mL (≈ 33.5 µM)
NRRL21447, 24 h, R. oryzae type II NRRL 21447, 24 h, read-out: MIC
  MIC: 6.25 µg/mL (≈ 16.7 µM)
NRRL21447, 48 h, R. oryzae type II NRRL 21447, 48 h, read-out: MFC
  MFC: 6.25 µg/mL (≈ 16.7 µM)
NRRL21447, 48 h, R. oryzae type II NRRL 21447, 48 h, read-out: MIC
  MIC: 6.25 µg/mL (≈ 16.7 µM)
NRRL21477, 24 h, R. oryzae type II NRRL 21477, 24 h, read-out: MFC
  MFC: 1.56 µg/mL (≈ 4.18 µM)
NRRL21477, 24 h, R. oryzae type II NRRL 21477, 24 h, read-out: MIC
  MIC: 1.56 µg/mL (≈ 4.18 µM)
NRRL21477, 48 h, R. oryzae type II NRRL 21477, 48 h, read-out: MFC
  MFC: 1.56 µg/mL (≈ 4.18 µM)
NRRL21477, 48 h, R. oryzae type II NRRL 21477, 48 h, read-out: MIC
  MIC: 1.56 µg/mL (≈ 4.18 µM)
NRRL21628, 24 h, R. oryzae type II NRRL 21628, 24 h, read-out: MFC
  MFC: 0.78 µg/mL (≈ 2.09 µM)
NRRL21628, 24 h, R. oryzae type II NRRL 21628, 24 h, read-out: MIC
  MIC: 0.78 µg/mL (≈ 2.09 µM)
NRRL21628, 48 h, R. oryzae type II NRRL 21628, 48 h, read-out: MFC
  MFC: 0.78 µg/mL (≈ 2.09 µM)
NRRL21628, 48 h, R. oryzae type II NRRL 21628, 48 h, read-out: MIC
  MIC: 0.78 µg/mL (≈ 2.09 µM)
NRRL21789, 24 h, R. oryzae type II NRRL 21789, 24 h, read-out: MFC
  MFC: 0.39 µg/mL (≈ 1.04 µM)
NRRL21789, 24 h, R. oryzae type II NRRL 21789, 24 h, read-out: MIC
  MIC: 0.39 µg/mL (≈ 1.04 µM)
NRRL21789, 48 h, R. oryzae type II NRRL 21789, 48 h, read-out: MFC
  MFC: 0.39 µg/mL (≈ 1.04 µM)
NRRL21789, 48 h, R. oryzae type II NRRL 21789, 48 h, read-out: MIC
  MIC: 0.39 µg/mL (≈ 1.04 µM)
24 h
  MIC90: 12.5 µg/mL (≈ 33.5 µM)
48 h
  MIC90: 6.25 µg/mL (≈ 16.7 µM)
